Where a name gives a salt, the structure may show the parent alone.
Assays:
[1] = Clarity / appearance of fill composition; format: physicochemical; conditions: normal dose of drug in 1 gram
From the text: (§1) Agitation continued until all the SAE-CD dissolved.
Clarity of the fill compositions herein can be determined by visual inspection; however, other known methods for determining the clarity of a fill composition can be performed. Exemplary other methods include transmittance spectrophotometry at a wavelength of 800 nm.

[2] = Shell stability toward aqueous fill composition, statements on soft gelatin capsules; format: physicochemical; conditions: for stability provided to capsules: about ≧60% wt.
[3] = Water activity measurement; format: physicochemical; conditions: for Water Activity (approximate values): about 20-25° C.
Experimental: Without being held bound to a particular mechanism, it is believed that the increasing the concentration of derivatized cyclodextrin present in the aqueous fill composition results in reduced water activity for the fill composition. The table below provides a summary of water activity versus concentration of cyclodextrin derivatives or some shell-stabilizing materials in water at about 20-25° C., or ambient temperature.
The values detailed above are approximate and can vary from instrument to instrument. These values were determined according to the procedure described herein on a water activity meter described herein. The numbers can also vary within the standard deviation of a particular instrument. It is also possible for the numbers to vary according to the accuracy and reproducibility of the instrument used as well as the method for calibrating the instrument with solution standards of known water activity.
Water activity was measured by placing a sample solution in a small, sealed container and determining the equilibrium humidity and temperature in the container. Instruments such as the HygroLab 3 from Rotronic Instrument Corp. , Huntington, N.Y. were used to measure the water activity. The humidity is determined using a thin film capacitive sensor in the headspace of the container. The temperature is determined using a Pt RTD 100 sensor. From these measurements the activity of water (Aw) is calculated by the instrument. The instrument has an accuracy of about ±0.015 Aw and a repeatability of about ±0.005 Aw. Carefully prepared salt-containing stock solutions of known concentration and water activity were used to calibrate the instrument prior to use.

[4] = Shell stability on exposure to aqueous fill composition (half-shell integrity test, H.S.I.T.); format: physicochemical; conditions: HFC
Experimental: (§2) The same tests were performed on gelatin capsules obtained from CARDINAL HEALTH.
It has been discovered that PEG has a beneficial effect upon the shell-stabilizing property of an aqueous fill composition comprising SAE-CD. FIG. 6a depicts a ternary graph correlating the concentration of SAE-CD, water and PEG in a fill composition to the H.S.I.T. rating of a soft shell capsule exposed to the fill composition. Aqueous fill solutions comprising differing amounts of PEG, SAE-CD and water were prepared. The stability tests were conducted as described below. The HFC soft gelatin capsules described herein were used. For a composition comprising 40% wt. SBE-CD, 40% wt. water and 20% wt. PEG, the shell was stable for greater than 5 days. For a composition comprising 35% wt. SBE-CD, 35% wt. water and 30% wt. PEG, the shell was stable for greater than 5 days. For a composition comprising 18% wt. SBE-CD, 42% wt. water and 40% wt. PEG, the shell was stable for greater than 5 days. Under each of the conditions tested, the control sample excluded SAE-CD, i.e., containing only water and PEG at the indicated concentration, and failed within 24 hours. About the same results were obtained for the HFB (FIG. 6b), LFB (FIG. 7a) and LFC (FIG. 7b) soft gelatin capsules. Increasing the SAE-CD concentration to values higher than those indicated further increases the shelf-life of the shell or provides an HSIT rating of at least 4. Stabilized aqueous fill composition-containing capsule formulations can be achieved with each capsule if the following fill compositions are used.

[5] = as above; format: physicochemical; conditions: LFC
Experimental: as §2

[6] = as above; format: physicochemical; conditions: HFB
From the text: as §1

[7] = as above; conditions: LFB
Experimental: A study was conducted to determine whether or not complexation of a drug to the SAE-CD alters the ability of the SAE-CD to stabilize the capsule shell against dissolution, erosion, swelling or degradation caused by water in the fill composition enclosed within the capsule shell. Banner's hydrophilic, HFB, and lipophilic, LFB, air fill size 35 oval gelatin capsules were used in this study, which was performed as described below. […] The SAE-CD was slowly added to the water while it was stirring and on a hot plate. Agitation continued until all the SAE-CD dissolved. The SAE-CD was divided by weighing in equal amounts into nine vials (one for each drug). […] The amount of drug added produced a composition that contained a normal dose of drug in 1 gram. The vials were agitated and heated until a solution was obtained or the active was uniformly suspended. […]
Method A: Half-Shell integrity Test (H.S.I.T.)
In a closed container, a portion of a capsule shell is exposed to an aqueous fill composition comprising a known amount of derivatized cyclodextrin, water and optionally one or more other excipients. Observation of changes, or lack thereof, on the exposed portion's size, appearance, shape, dissolution, erosion, degradation, hardness, and/or translucence are recorded periodically over time. A rating scale is used to quantify the overall performance of the capsule portion during the test.

[8] = 40% wt. cyclodextrin derivative in water
[9] = 50% wt. cyclodextrin derivative in water
[10] = 60% wt. cyclodextrin derivative in water
[11] = 70% wt. cyclodextrin derivative in water

With `COc1ccccc1OCCNCC(O)COc1cccc2[nH]c3ccccc3c12` (centres unmarked) [Carvedilol] the Fill composition appearance ([1]; 60% w/w SAE-CD) was “solution” and the Fill composition appearance ([1]; 70% w/w SAE-CD) was “clear solution”.

With `C(=C\c1ccccc1)/CN1CCN(C(c2ccccc2)c2ccccc2)CC1` [Cinnarizine] the Fill composition appearance ([1]; 60% w/w SAE-CD) was “suspension” and the Fill composition appearance ([1]; 70% w/w SAE-CD) was “suspension”.

For `CC(C)(C(=O)O)c1ccc(C(O)CCCN2CCC(C(O)(c3ccccc3)c3ccccc3)CC2)cc1` (centres unmarked) [Fexofenadine HCl], the Fill composition appearance ([1]; 60% w/w SAE-CD) was “solution” and the Fill composition appearance ([1]; 70% w/w SAE-CD) was “clear solution”.

With `C[C@]12CCC(=O)C=C1CC[C@@H]1[C@@H]2[C@@H](O)C[C@@]2(C)[C@H]1CC[C@]2(O)C(=O)CO` [Hydrocortisone] the Fill composition appearance ([1]; 60% w/w SAE-CD) was “clear solution” and the Fill composition appearance ([1]; 70% w/w SAE-CD) was “clear solution”.

In the case of `COc1ccc2c(c1)c(CC(=O)O)c(C)n2C(=O)c1ccc(Cl)cc1` [Indomethacin], the Fill composition appearance ([1]; 60% w/w SAE-CD) was “solution” and the Fill composition appearance ([1]; 70% w/w SAE-CD) was “clear solution”.

With `C[C@]12CCC(=O)C=C1CC[C@@H]1[C@@H]2CC[C@@]2(C)[C@H]1CC[C@]2(C)O` [Methyltestosterone] the Fill composition appearance ([1]; 60% w/w SAE-CD) was “clear solution” and the Fill composition appearance ([1]; 70% w/w SAE-CD) was “clear solution”.

With `CN[C@H]1CC[C@@H](c2ccc(Cl)c(Cl)c2)c2ccccc21` [Sertraline HCl] the Fill composition appearance ([1]; 60% w/w SAE-CD) was “solution” and the Fill composition appearance ([1]; 70% w/w SAE-CD) was “clear solution”.

In the case of `C[C@]12CC[C@H]3[C@@H](CCC4=CC(=O)CC[C@@]43C)[C@@H]1CC[C@@H]2O` [Testosterone], the Fill composition appearance ([1]; 60% w/w SAE-CD) was “clear solution” and the Fill composition appearance ([1]; 70% w/w SAE-CD) was “clear solution”.

With “Dimethylcyclodextrin [DMCD, reference compound]” the “effect on stability of the shell” value ([2]; about 42% wt., maximum achievable concentration, FIG. 2) was “only slightly increased the stability of the shell”, the “ability to stabilize soft gelatin capsules from water in the fill composition” value ([2]; at saturation concentration in water, FIG. 4) was “unable to stabilize” and the water activity ([3]; 43% wt. in water, the approximate saturation concentration) was “approximately 0.996”.

For hydroxypropyl cyclodextrin [HP-CD], the “Increase in shell size” value [4, 8] was greater than 3 × × original, the Observations [4, 8] was “Deformed” and the Time for failure [4, 8] was 2 days. For the same molecule, the “Increase in shell size” value [4, 9] was 2 × × original, the Observations [4, 9] was “shape intact” and the Time for failure [4, 9] was 4 days. For the same molecule, the “Increase in shell size” value [4, 10] was 2 × × original, the Observations [4, 10] was “Slight deformity” and the Time for failure [4, 10] was 7 days. The “Increase in shell size” value [4, 11] was 1.5 × × original, the Observations [4, 11] was “Shape intact” and the Time for failure [4, 11] was 14 days. The “Increase in shell size” value [5, 8] was greater than 3 × × original, the Observations [5, 8] was “Deformed” and the Time for failure [5, 8] was 2 days. For the same molecule, the “Increase in shell size” value [5, 9] was 2 × × original, the Observations [5, 9] was “Shape intact” and the Time for failure [5, 9] was 4 days. The “Increase in shell size” value [5, 10] was 2 × × original, the Observations [5, 10] was “Slight deformity” and the Time for failure [5, 10] was 7 days. For the same molecule, the “Increase in shell size” value [5, 11] was 1.5 × × original, the Observations [5, 11] was “Shape intact” and the Time for failure [5, 11] was 14 days. For the same molecule, the “shelf-life of soft gelatin capsules” value ([2]; 60% wt. or more based upon total weight of water and HP-CD) was “at least one week”, the “stability provided to capsules” value ([2]; LFB and LFC soft gelatin capsules as printed, FIG. 2) was “at least one week stability” and the “stability provided to capsules” value ([2]; LFB and LFC soft gelatin capsules, FIG. 1) was “at least a one-week stability”. For the same molecule, the “Water Activity (approximate values)” value ([3]; 10 % w/w in water) was roughly 0.99, the “Water Activity (approximate values)” value ([3]; 20 % w/w in water) was roughly 0.99 and the “Water Activity (approximate values)” value ([3]; 30 % w/w in water) was roughly 0.98. For the same molecule, the “Water Activity (approximate values)” value ([3]; 40 % w/w in water) was roughly 0.98, the “Water Activity (approximate values)” value ([3]; 50 % w/w in water) was roughly 0.97 and the “Water Activity (approximate values)” value ([3]; 60 % w/w in water) was roughly 0.94. The “Water Activity (approximate values)” value ([3]; 70 % w/w in water) was roughly 0.93, the “Increase in shell size” value [6, 8] was greater than 3 × × original and the Observations [6, 8] was “Deformed”. The Time for failure [6, 8] was 2 days, the “Increase in shell size” value [6, 9] was 2 × × original and the Observations [6, 9] was “shape intact”. The Time for failure [6, 9] was 4 days, the “Increase in shell size” value [6, 10] was 2 × × original and the Observations [6, 10] was “Shape intact”. For the same molecule, the Time for failure [6, 10] was 7 days, the “Increase in shell size” value [6, 11] was 1.5 × × original and the Observations [6, 11] was “Shape intact”. The Time for failure [6, 11] was 14 days, the “Increase in shell size” value [7, 8] was greater than 3 × × original and the Observations [7, 8] was “Deformed”. For the same molecule, the Time for failure [7, 8] was 2 days, the “Increase in shell size” value [7, 9] was 2 × × original and the Observations [7, 9] was “shape intact”. For the same molecule, the Time for failure [7, 9] was 4 days, the “Increase in shell size” value [7, 10] was 2 × × original and the Observations [7, 10] was “Shape intact”. The Time for failure [7, 10] was 7 days, the “Increase in shell size” value [7, 11] was 1.5 × × original and the Observations [7, 11] was “Shape intact”. It also gave a Time for failure [7, 11] of 14 days.

Reference: patent US7829114B2, “Capsules containing aqueous fill compositions stabilized with derivatized cyclodextrin” (CyDex Pharmaceuticals, Inc., priority 2002, dated 2010)
